The results in this text go back to patent US20210161189A1, “MONOESTER SUGAR DERIVATIVES AS FLAVOR MODIFIERS” (Firmenich SA, priority 2018, published 2021).

The structures appear in SMILES notation.

Common to all, as to assay type: in vivo, human
For assay [1], the system named is sensory panel. Briefly: Sensory panel, lemon flavored alcoholic beverage. Set-up: scale not given here. As to conditions: panel score. The procedure:
[…] In parallel, a control composition, comprising lemon flavored alcoholic beverage was also generated. A sensory panel consisting of between 6 to 8 persons compared the overall flavor, sweetness, acidity, bitterness, astringency, off-notes, and long-lastingness of the sweetness of the test composition and the control composition. The results were analyzed using the Duncan comparison test.

Assay [2] deals with sensory panel. The assay is described as follows: Taste modifier properties in model systems (sensory panel of 15 persons, with/without noseclip). As to conditions: 100 ppm; for Sour taste modulation effect: without nose clip. The method, then:
The sensory properties of various compositions comprising a monoester derivative of glucose were tested in various model systems, outlined in Table 14 below. [table] FIGS. 12 to 18 report the sweetness modifier properties of each of the following compounds (tested at 100 ppm in the various mode systems described above): glucose-6-O-octanoate, glucose-6-O-acetate, glucose-6-O-hexanoate, glucose-6-O-decanoate, glucose-6-O-hexadecanoate, glucose-6-O-oleate and glucose-6-O-oleyl derivative. The sensory properties were evaluated by a sensory panel consisting of15 persons, where the properties were evaluated with the subjects wearing a noseclip (With NC), and without a noseclip (Without NC). The subjects evaluate the perceived intensities of different sensory attributes on a linear scale (“0” note intense to “10” very intense) for the corresponding model mixtures without and with the compound at 100ppm. The differences of perceived intensities between the model mixtures with and without the compound are represented for each attribute. A statistical data treatment (unilateral paired student test) is achieved on each attribute to conclude on a significant or not significant taste modulation effect of the compound.

Assay [3] concerns sensory panel. The assay is described as follows: Sensory panel, strawberry flavored bottled water (BWAT) containing 7% w/v sucrose. As to conditions: 100 ppm in strawberry BWAT 7% sucrose; panel score. The procedure: Next, glucose-6-O-octanoate was added to a fruit flavored bottled water test composition (strawberry flavored water, containing 7% w/v sucrose), to result in a final concentration of 100 ppm in the test composition.

Setting [4] is: 100 ppm in lemon flavored alcoholic beverage.
Setting [5] is: 200 ppm in lemon flavored alcoholic beverage.

In the case of `CCCCCCCC(=O)OC[C@@H](O)[C@@H](O)[C@H](O)[C@@H](O)C=O` [glucose-6-O-octanoate], in the assay with sensory panel [1] (setting [4]), the Acidity was 2, the Astringency is listed as 1, the Off-notes amounted to 0.25 and the “Overall Flavor” value worked out at 3.5. In the assay with sensory panel [1] (setting [4]), this molecule yielded a Sweetness of 3. In addition, in the assay with sensory panel [1] (setting [5]), the Acidity worked out at 2, the Astringency turned out to be 2, the Bitterness is on record as 1.1 and the Long-Lasting came out at 1.6. In the assay with sensory panel [1] (setting [5]), the Off-notes worked out at 0.4 and the “Overall Flavor” value is listed as 2.3. The “Sweet taste modulation effect” value in the assay on sensory panel [2] (SG95 model mixture, without and with nose clip) is reported as “significant sweet enhancing effects”. Also, in the assay on sensory panel [2] (beverage grapefruit model, with nose clip, significance 95%), the “Round/thick/mouth coating modulation effect” value was “significant round/thick/mouth coating enhancing effect”. Moreover, the “Sour taste modulation effect” value in the assay with sensory panel [2] (beverage grapefruit model, significance 95%) was “significant sour masking effect”. Moreover, the “Sweet taste modulation effect” value with sensory panel [2] (semi-skimmed milk+sucrose model mixture, without and with nose clip) is “significant sweet enhancing effects”. Also, in the assay on sensory panel [2] (stevia-sour model, with nose clip, significance 95%), the “Sweet taste modulation effect” value is listed as “significant sweet masking effect”. For the same molecule, the “Sweet taste modulation effect” value in the assay with sensory panel [2] (sucrose model mixture) was “significant sweet enhancing effects”. Further, the “Sour taste modulation effect” value with sensory panel [2] (sweet-sour model mixture, significance 95%) is given as “significant sour masking effect”. Further, in the assay with sensory panel [3], the Astringency is on record as 0.5, the Long-Lasting was determined as 0.92, the Off-notes is reported as 0.33 and the “Overall Flavor” value is on record as 3. In the assay on sensory panel [3], this molecule displayed a Sweetness of 4.08.
